Results on three compounds are retold here after patent US20250170200A1, “COMPOSITION COMPRISING COFFEE EXTRACT FOR SUPPRESSING POSTPRANDIAL BLOOD SUGAR RISE” (PYXIS INC., priority 2022, published 2025).

“Also recorded” adds a separate entry of the source.

Test [1] has as its system rat intestinal α-glucosidase. In words: Rat intestinal α-glucosidase inhibition assay. It counts as biochemical. Conditions: in words, FIG. 1 and FIG. 2. The method, then:
• Enzyme: rat small intestinal acetone powder • Substrate: PNP-glycoside (pNPG, p-Nitrophenyl α-Dglucopyranoside) 150 mg of rat small intestine acetone powder was added to 9 ml of 0.1 M sodium phosphate buffer (pH 6.9; including 0.9% sodium chloride), ultrasonicated 12 times in an ice water bath for 30 seconds, and then centrifuged at 13,000 rpm and 4° C. for 3 minutes. After centrifugation, a supernatant was collected and used in rat intestinal α-glucosidase inhibition assay. 100 μl of a rat α-glucosidase solution and 50 μl of a sample solution were added and reacted at 37° C. for 10 minutes, and then 50 μl of 5 mM pNPG solution was added thereto to react the mixture at 37° C. for 10 minutes. After completion of the reaction, inhibitory activity against rat intestinal α-glucosidase was analyzed by measuring absorbance at 405 nm by using an ELISA reader. The sample solution used in the experiment was prepared as follows. The hot-water extract was centrifuged (8000 rpm, 30 min), the supernatant was filtered through a filter paper (90 mm/Whatman™), and the filtrate was concentrated to 60 to 150 ml and freeze-dried to produce extract powder. 100 mg of powder was mixed with 1 L of water to prepare a sample solution.

The target in test [2] is T1, porcine pancreatic α-amylase (Sus scrofa, UniProt P00690).
T1 sequence (P00690 16-511): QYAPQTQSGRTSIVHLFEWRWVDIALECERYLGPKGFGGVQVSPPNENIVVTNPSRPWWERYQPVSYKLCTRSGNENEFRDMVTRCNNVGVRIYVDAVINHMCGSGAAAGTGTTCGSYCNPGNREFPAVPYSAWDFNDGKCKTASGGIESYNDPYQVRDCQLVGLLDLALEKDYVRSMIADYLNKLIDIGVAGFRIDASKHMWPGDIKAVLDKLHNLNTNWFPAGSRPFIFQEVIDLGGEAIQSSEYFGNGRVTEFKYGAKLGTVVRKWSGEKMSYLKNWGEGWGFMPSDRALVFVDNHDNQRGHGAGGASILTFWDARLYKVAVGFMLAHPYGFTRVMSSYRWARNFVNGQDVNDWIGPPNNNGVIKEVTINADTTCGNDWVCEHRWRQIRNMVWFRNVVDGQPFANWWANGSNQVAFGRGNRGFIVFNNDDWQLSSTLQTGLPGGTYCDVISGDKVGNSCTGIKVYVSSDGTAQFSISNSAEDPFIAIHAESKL
Description: Porcine pancreatic α-amylase inhibition assay. The test is classed as biochemical. To be noted: at a concentration of 25 mM/ml, FIG. 4. The protocol:
• Enzyme: porcine pancreatic α-amylase • Substrate: 1% starch solution in 0.02 M sodium phosphate buffer (pH 6.9) • Coloring Reagent: 3,5-dinitrosalicylic acid solution (DNS) in 2 M NaOH with 30% sodium potassium tartrate tetrahydrate
200 μl of a sample solution was added to 300 μl of a porcine pancreatic α-amylase solution having a concentration of 10 U, which is dissolved in a 0.02 M sodium phosphate buffer (pH 6.9; including 0.006 M sodium chloride), and incubated at 25° C. for 10 minutes.
500 μl of a 1% starch solution, which was pre-cultured at 25° C. for 10 minutes, was added to the solution, and the mixture was reacted at 25° C. for 10 minutes.
1 ml of a 1% DNS solution dissolved in 30% Rochelle salt was added and treated in boiling water bath for 5 minutes and cooled to room temperature, and 10 ml of distilled water was added to the resultant.
The absorbance of a reaction solution of the DNS solution and sugar decomposed from the substrate by α-amylase was measured at 540 nm by using an ELISA reader.

For test [3], the system named is SD rat. Description: Postprandial blood sugar rise suppression after sucrose administration. The test is classed as in vivo. Conditions: for postprandial blood sugar: sucrose. The protocol: (§1) An SD rat, a 5-week-old male, was purchased from RAONBIO, bred in an animal breeding room, and only healthy animals at 6 weeks of age were selected and used in the experiment. After fasting the experimental animals for 24 hours or longer before the experiment, the coffee extract was administered at a concentration of 0.5 g/kg to 2 g/kg body weight of sucrose or starch, and the sample was orally administered using a zonde for oral administration. The administration group was 6 groups, 6 per each group. The blood was collected from the rat tail vein at 30, 60 and 120 minutes after oral administration, and changes in blood sugar concentration in the venous blood were measured using a blood sugar meter ([…]).

Test [4] deals with SD rat. Description: Postprandial blood sugar rise suppression after starch administration. The test is classed as in vivo. The protocol: as §1
Where [5] appears, read: 0.1 g/kg of chlorogenic acid, 30 minutes.
[6] abbreviates: 0.1 g/kg of chlorogenic acid, 60 minutes (first value of 'from 30 minutes to 2 hours').
Where [7] appears, read: 0.1 g/kg of chlorogenic acid, 120 minutes (2 hours).
The mark [8] stands for this setting: 0.5 g/kg of chlorogenic acid, 30 minutes.
[9] abbreviates: 0.5 g/kg of chlorogenic acid, 60 minutes (first value of 'from 30 minutes to 2 hours').
Where [10] appears, read: 0.5 g/kg of chlorogenic acid, 120 minutes (2 hours).

Consider `O=C(O)/C=C/c1ccc(O)c(O)c1` [caffeic acid], for which the “inhibitory activity against rat intestinal α-glucosidase” value in test [1] is reported as “increases in dependence on the concentration”.

Regarding `O=C(/C=C/c1ccc(O)c(O)c1)O[C@@H]1C[C@](O)(C(=O)O)C[C@@H](O)[C@H]1O` [chlorogenic acid], the “inhibitory activity against rat intestinal α-glucosidase” value in test [1] is “increases in dependence on the concentration; also recorded: the most excellent”. In addition, in test [2], the “inhibitory activity against α-amylase” value is listed as “excellent inhibitory activity”. Also, the “effect on postprandial blood sugar rise after sucrose intake” value in the test on SD rat [3] (in words) is “effect of suppressing postprandial blood sugar rise”. Also, the postprandial blood sugar in the test with SD rat [3] (setting [5]) was 184.93 ± 8.24 mg/dL; with SD rat [3] (setting [6]) it was 174.00 ± 16.67 mg/dL; with SD rat [3] (setting [7]), 147.38 ± 10.86 mg/dL; with SD rat [3] (setting [8]), 131.29 ± 14.47 mg/dL; in the test on SD rat [3] (setting [9]) it was 130.64 ± 10.90 mg/dL; in the test with SD rat [3] (setting [10]) it was 120.69 ± 13.77 mg/dL. The blood sugar is 239.00 ± 25.86 mg/dL with SD rat [4] (setting [5]); 137.33 ± 10.46 mg/dL in the test on SD rat [4] (setting [6]); 126.08 ± 10.75 mg/dL in the test with SD rat [4] (setting [7]); 225.17 ± 18.37 mg/dL in the test with SD rat [4] (setting [8]); 137.23 ± 9.58 mg/dL with SD rat [4] (setting [9]); 126.46 ± 12.1 mg/dL in the test with SD rat [4] (setting [10]).

In the case of `O=C(O)[C@]1(O)C[C@@H](O)[C@@H](O)[C@H](O)C1` [quinic acid], in test [1], the “inhibitory activity against rat intestinal α-glucosidase” value is listed as “increases in dependence on the concentration”. Further, in test [2], the “inhibitory activity against α-amylase” value is given as “excellent inhibitory activity”.
